Data set [1] relates to Mus musculus. In words: Antiinflammatory activity in mouse assessed as reduction PMA-induced ear edema at 50 ug/ear administered relative to control. The class given is functional. Also on record: scale not given: the % may be the effect or the level left. The note with it: at 50 µg/ear.
The test system of data set [2] is Mus musculus. The data set is described as follows: Antiinflammatory activity in ip dosed mouse assessed as inhibition of writhing. In kind it is functional. A general note: Writhing tests count abdominal constrictions after an irritant is injected.
The subject of data set [3] is Mus musculus. The data set is described as follows: Antiinflammatory activity in ip dosed mouse assessed as reduction PMA-induced ear edema. The class given is functional.
Data set [4] deals with Mus musculus. The data set is described as follows: Antiinflammatory activity in mouse assessed as reduction PMA-induced ear edema. The class given is functional.
Data set [5] is described as follows: Inhibition of cell division of fertilized sea urchin egg. The note with it: echinoidea.
The nature of data set [6]: Inhibition of nuclear division of fertilized sea urchin egg. The note with it: echinoidea.
The nature of data set [7]: Inhibition of tubulin polymerization.

≈ marks a conversion by molar mass, not a printed value.

Regarding `CC(C)=CCC[C@H](C)[C@H]1CC[C@H](C)c2c1cc(C)c(O)c2O[C@@H]1OC[C@@H](O)[C@@H](O)[C@@H]1O` [SECO-PSEUDOPTEROSIN A], the Activity in the data set on Mus musculus [1] amounted to 75%.
Still for that read-out and setting: to `CC(=O)O[C@H]1[C@H](O)[C@H](Oc2c(O)c(C)cc3c2[C@@H](C)CC[C@@H]3[C@@H](C)CCC=C(C)C)OC[C@H]1O` belongs 75%; to `CC(=O)O[C@@H]1CO[C@@H](Oc2c(O)c(C)cc3c2[C@@H](C)CC[C@@H]3[C@@H](C)CCC=C(C)C)[C@@H](O)[C@@H]1O`, 75%.
For `CC(C)=C[C@H]1C[C@H](C)[C@H]2CC[C@H](C)c3c(O[C@@H]4OC[C@@H](O)[C@H](O)[C@H]4O)c(O)c(C)c1c32` [PSEUDOPTEROSIN A], the ED50 with Mus musculus [2] was 4 mg/kg; in the data set with Mus musculus [3] it was 10 mg/kg; with Mus musculus [4], 8.3 µg. The Activity in the data set on Mus musculus [1] is 75%.
`CC(=O)O[C@@H]1CO[C@@H](Oc2c(O)c(C)c3c4c2[C@@H](C)CC[C@@H]4[C@@H](C)C[C@@H]3C=C(C)C)[C@H](O)[C@H]1O` [PSEUDOPTEROSIN D]: the ED50 with Mus musculus [2] worked out at 4 mg/kg; in the data set with Mus musculus [3] it was 10 mg/kg. In addition, in the data set on Mus musculus [1], the Activity worked out at 75%.
Regarding `CC(=O)O[C@@H]1[C@@H](O)[C@H](Oc2c(O)c(C)c3c4c2[C@@H](C)CC[C@@H]4[C@@H](C)C[C@@H]3C=C(C)C)OC[C@H]1O` [PSEUDOPTEROSIN C], the ED50 with Mus musculus [2] stood at 4 mg/kg; in the data set with Mus musculus [3], 10 mg/kg. Further, in the data set on Mus musculus [1], the Activity worked out at 75%.
For `CC(=O)O[C@H]1[C@H](Oc2c(O)c(C)c3c4c2[C@@H](C)CC[C@@H]4[C@@H](C)C[C@@H]3C=C(C)C)OC[C@@H](O)[C@@H]1O` [PSEUDOPTEROSIN B], the ED50 with Mus musculus [2] turned out to be 4 mg/kg; in the data set on Mus musculus [3], 10 mg/kg. Also, in the data set on Mus musculus [1], the Activity amounted to 75%.
On to `CC(=O)O[C@@H]1[C@H](Oc2c(O)c(C)cc3c2[C@@H](C)CC[C@@H]3[C@@H](C)CCC=C(C)C)OC[C@@H](O)[C@H]1O` [SECO-PSEUDOPTEROSIN B], for which the Activity with Mus musculus [1] came out at 75%.
As for `C=C(C)[C@H]1C2=CC(C(=O)OC)=C(C[C@H](C(C)C)[C@H]3O[C@H]3C3=C[C@H]1OC3=O)O2` [PSEUDOPTEROLIDE], the figures for the Activity result (in data set [5]; in data set [6]; in the data set on Mus musculus [1]) were “Non-toxic”, “Non-toxic” and 83%, respectively. In addition, in data set [7], the ED50 was 8 mg/L (≈ 21.5 µM).

The values above are taken from ChEMBL document CHEMBL1150734, “Marine soft corals of the genus Pseudopterogorgia: a resource for novel anti-inflammatory diterpenoids” (J Nat Prod, 1987).
